Laboratory results published in patent publication US20240277006A1, “ANTIBIOTIC-FREE ANTIMICROBIAL FEED ADDITIVES AND ANTIMICROBIAL COMPOSITIONS” (Sláinte Beoga Teoranta, priority 2018, published 2024).

Tested on: E. coli (1103 DSMZ)
Experiment: Checkerboard assay, composition with antibiotic
Assay type: cell-based
Settings: composition comprising a source of iodide ions and a source of hydrogen peroxide plus antibiotic
Protocol: Checkerboard assays were carried out to determine if there is a synergistic antagonistic effect with the addition of an antibiotic to a composition comprising a source of iodide ions and a source of hydrogen peroxide. • E. coli (1103 DSMZ) was used for tests • These tests were carried out in lysogeny broth (lb) • Antibiotics tested were ampicillin and gentamycin • Procedure: • 50 μl antibiotic • 100 μl composition • 150 μl 10^5 cells in LB Results
Cells shaded in dark grey represent sub-inhibitory concentrations where growth prevailed. Bacterial growth was prevented for the remaining cells. […] However, in the presence of both the composition and the antibiotic, the concentrations required to achieve a kill are lower—in other words, the combined MIC is lower. These can be seen by the entries marked with a star (*).

Structure (SMILES) | Effect of the antibiotic in combination with the composition
CC[C@H]1OC(=O)[C@H](C)[C@@H](O[C@H]2C[C@@](C)(OC)[C@@H](O)[C@H](C)O2)[C@H](C)[C@@H](O[C@@H]2O[C@H](C)C[C@H](N(C)C)[C@H]2O)[C@](C)(OC)C[C@@H](C)C(=O)[C@H](C)[C@@H](O)[C@]1(C)O [clarithromycin] | synergistic effect
CC[C@H]1OC(=O)[C@H](C)[C@@H](O[C@H]2C[C@@](C)(OC)[C@@H](O)[C@H](C)O2)[C@H](C)[C@@H](O[C@@H]2O[C@H](C)C[C@H](N(C)C)[C@H]2O)[C@](C)(O)C[C@@H](C)C(=O)[C@H](C)[C@@H](O)[C@]1(C)O [erythromycin] | synergistic effect
